Target: T1, DNA damage-binding protein 1 (DDB1) (Homo sapiens, UniProt Q16531)
T1 construct: with CUL4A
Assay: AlphaScreen disruption of purified His-DDB1/GST-CUL4A interaction; in vitro Ni-NTA pulldown with recombinant proteins

T1 sequence (Q16531 whole entry): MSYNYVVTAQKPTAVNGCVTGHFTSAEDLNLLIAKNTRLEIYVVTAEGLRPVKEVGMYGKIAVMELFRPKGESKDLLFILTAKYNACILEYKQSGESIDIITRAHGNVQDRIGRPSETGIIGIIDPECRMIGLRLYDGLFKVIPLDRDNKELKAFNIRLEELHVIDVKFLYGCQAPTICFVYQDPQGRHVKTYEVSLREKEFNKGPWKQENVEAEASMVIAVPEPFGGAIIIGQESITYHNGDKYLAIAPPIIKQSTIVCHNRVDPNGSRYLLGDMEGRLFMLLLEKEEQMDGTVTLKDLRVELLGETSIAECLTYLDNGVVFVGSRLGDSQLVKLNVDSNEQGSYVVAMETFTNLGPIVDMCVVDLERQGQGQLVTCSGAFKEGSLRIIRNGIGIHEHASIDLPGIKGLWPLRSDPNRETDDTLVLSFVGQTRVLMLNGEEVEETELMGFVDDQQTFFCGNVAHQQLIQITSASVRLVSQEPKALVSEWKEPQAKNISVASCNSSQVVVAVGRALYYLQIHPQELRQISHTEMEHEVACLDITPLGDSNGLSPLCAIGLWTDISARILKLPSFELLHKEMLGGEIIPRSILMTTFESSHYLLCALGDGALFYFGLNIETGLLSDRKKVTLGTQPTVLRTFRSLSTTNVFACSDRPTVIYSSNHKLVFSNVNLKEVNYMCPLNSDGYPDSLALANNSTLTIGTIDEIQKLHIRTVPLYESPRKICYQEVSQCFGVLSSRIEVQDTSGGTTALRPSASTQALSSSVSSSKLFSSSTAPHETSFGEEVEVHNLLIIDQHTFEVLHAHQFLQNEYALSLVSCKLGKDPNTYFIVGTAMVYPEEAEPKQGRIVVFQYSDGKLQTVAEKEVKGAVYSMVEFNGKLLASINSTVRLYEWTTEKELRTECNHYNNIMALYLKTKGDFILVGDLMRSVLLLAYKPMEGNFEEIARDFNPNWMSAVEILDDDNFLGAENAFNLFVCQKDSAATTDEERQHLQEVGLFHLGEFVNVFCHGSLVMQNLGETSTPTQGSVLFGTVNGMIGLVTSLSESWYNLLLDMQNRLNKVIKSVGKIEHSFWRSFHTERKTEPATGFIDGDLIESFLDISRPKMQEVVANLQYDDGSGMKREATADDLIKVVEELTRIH
T1 sequence (Q13619 whole entry partner): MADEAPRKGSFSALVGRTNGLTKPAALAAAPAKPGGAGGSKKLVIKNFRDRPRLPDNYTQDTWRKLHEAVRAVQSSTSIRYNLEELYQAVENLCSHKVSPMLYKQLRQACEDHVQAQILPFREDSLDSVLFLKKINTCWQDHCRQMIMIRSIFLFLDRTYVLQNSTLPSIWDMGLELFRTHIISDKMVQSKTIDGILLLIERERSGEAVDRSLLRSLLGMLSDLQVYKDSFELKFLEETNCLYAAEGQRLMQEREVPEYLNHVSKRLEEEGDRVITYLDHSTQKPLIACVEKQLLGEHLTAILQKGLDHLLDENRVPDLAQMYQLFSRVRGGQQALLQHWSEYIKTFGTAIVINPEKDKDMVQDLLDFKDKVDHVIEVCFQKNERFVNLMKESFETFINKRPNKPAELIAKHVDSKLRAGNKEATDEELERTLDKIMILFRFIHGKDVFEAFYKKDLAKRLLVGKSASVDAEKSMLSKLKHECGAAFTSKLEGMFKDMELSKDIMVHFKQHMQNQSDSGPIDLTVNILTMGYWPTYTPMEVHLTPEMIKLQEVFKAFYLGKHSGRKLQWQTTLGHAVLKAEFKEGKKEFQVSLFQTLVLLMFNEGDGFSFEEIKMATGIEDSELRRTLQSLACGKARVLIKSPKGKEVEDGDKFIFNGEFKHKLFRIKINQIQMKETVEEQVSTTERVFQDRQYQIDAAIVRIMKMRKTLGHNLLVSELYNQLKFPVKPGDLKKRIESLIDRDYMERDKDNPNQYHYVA

With CC(=O)O[C@@H]1c2occc2[C@@H](O)C[C@H]2[C@]3(C)CC[C@H]4C(C)(C)CCC[C@]4(C)[C@H]3C[C@@]21C [NSC1892] the IC50 was 1.8 µM.
